In US6051206A, “Radiolabeled somatostatin-derived peptides for imaging and therapeutic uses” (Diatide, Inc, priority 1996, dated 2000):
pKi: −log10 of the molar value. Like-named read-outs stand apart in the source and are kept apart here. Bridge positions count the residues as written; N and C are the ends. Square brackets hold non-standard residues; d marks the D form. Peptide text beside a SMILES is read from it. * marks the point of attachment. X10 = NCCCC[C@H](NC(=O)[C@@H](N)CCCCNC(=O)C*)C(=O)N[C@@H](CS)C(N)=O; X2 = N=C(N)NCCC[C@H](NC(=O)[C@H](CS)NC(=O)CNC(=O)CNC(=O)C*)C(N)=O; X1 = NCCCC[C@H](NC(=O)[C@H](CS)NC(=O)CNC(=O)CNC(=O)C*)C(N)=O; NMeF = CN[C@@H](Cc1ccccc1)C(=O)O; hCys = N[C@@H](CCS)C(=O)O; Acm = CC(=O)NC*

Tests used:
[1] = system: Somatostatin Receptor (SSTR)-expressing CA20948 rat pancreatic tumors; settings: in vivo, iv
Experimental: (§1) CA20948 rat pancreatic tumor cells, thawed from frozen harvested tumor brei, were implanted intramuscularly in a suspension of 0.05 to 0.1 mL/animal, into the right hind thigh of 6 week old Lewis rats. The tumors were allowed to grow to approximately 0.5 to 2 g, harvested, and tumor brei was used to implant a second, naive set of Lewis rats. Passaging in this fashion was repeated to generate successive generations of tumor-bearing animals. The tumor-bearing animals used for the in vivo studies were usually from the third to fifth passage and carried 0.2 to 2 g tumors.
(§2) For studies of the specificity of radiotracer localization in the tumors, selected animals were given an subcutaneous SSTR-blocking dose (4 mg/kg) of octreotide 30 minutes prior to injection of the radiotracer.
(§3) Third- to fifth-passage CA20948 tumor-bearing Lewis rats were restrained and injected intravenously via the dorsal tail vein with a dose of 0.15-0.20 mCi ^99m Tc-labeled peptide corresponding to 3 to 8 μg peptide in 0.2 to 0.4 mL.
(§4) At selected times, the animals were sacrificed by cervical dislocation and selected necropsy was performed. Harvested tissue samples were weighed and counted along with an aliquot of the injected dose in a gamma well-counter.

somatostatin receptor = target: T1, somatostatin receptor (Rattus norvegicus, UniProt P30680); assay: Inhibition of binding of {125I-Tyr11}somatostatin-14 to AR42J rat pancreatic tumor cell membranes; settings: uncomplexed peptide, {125I-Tyr11}somatostatin-14 0.5 nM
T1 construct: endogenous in cells; host or cells: AR42J rat pancreatic tumor cell line (membrane preparation)
T1 sequence (P30680 whole entry): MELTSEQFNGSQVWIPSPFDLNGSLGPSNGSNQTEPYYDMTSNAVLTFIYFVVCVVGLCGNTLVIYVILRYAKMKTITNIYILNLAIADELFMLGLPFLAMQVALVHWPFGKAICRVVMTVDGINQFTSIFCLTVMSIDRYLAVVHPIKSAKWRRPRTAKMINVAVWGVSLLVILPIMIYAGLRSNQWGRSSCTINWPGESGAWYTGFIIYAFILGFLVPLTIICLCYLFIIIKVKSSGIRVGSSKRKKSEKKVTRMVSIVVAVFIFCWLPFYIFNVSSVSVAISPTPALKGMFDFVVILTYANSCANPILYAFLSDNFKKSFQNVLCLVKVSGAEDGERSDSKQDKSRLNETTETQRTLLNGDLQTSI
Experimental: The rat pancreatic tumor cell line AR42J which expresses the somatostatin receptor was cultured in Dulbecco's minimal essential media (DMEM) supplemented with 10% fetal bovine serum (FBS) and 8 mM glutamine in a humdified 5% CO2 atmosphere at 37° C. in T-flasks. Harvested cells were homogenized in cold 50 mM Tris-HCl buffer (pH 7.4) and the homogenate then centrifuged at 39,000 g for 10 min at 4° C. Pellets were washed once with buffer and then resuspended in an ice-cold solution of 10 mM Tris-HCl (pH 7.4). Equal aliquots of this cell membrane preparation were incubated with {^125 I-Tyr^11 }somatostatin-14 (at a final concentration of 0.5 nM and 750,000 cpm/mL, at a specific activity of 2000 Ci/mmol, Amersham, Arlington Heights, Ill.) and peptide or peptide-rheniumcomplex at a final concentration of from 10^-11 M to 10^-6 M in a solution of 50 mM HEPES (pH 7.4) containing 1 % bovine serum albumin (BSA), 5 mM MgCl2, Trasylol (200,000 International Units), bacitracin (0.02 mg/mL) and phenylmethylsulfonylfluoride (0.02 mg/mL) for 25min at 30° C. Using a filtration manifold, this mixture was filtered through a polyethyleneimine-washed GC/F filter (Whatman, Maidstone, England), and the residue remaining on the filter washed thrice with 5 mL cold HEPES buffer. The filter and a sample of the filter washings were then counted in a gamma counter. To assess non-specific binding, the assay was performed in the presence of unlabeled somatostatin-14 at 200 nM. Data analysis including Hill plots of the data provided inhibition constants (see Bylund & Yamamura, "Methods of receptor binding", in Methods in Neurotransmitter Receptor Analysis, Yamamura et al., eds., Raven Press: New York, 1990).

[2] = system: Somatostatin Receptor (SSTR)-expressing CA20948 rat pancreatic tumors; assay: Localization and in vivo biodistribution/imaging of Tc-99m labeled peptides in CA20948 tumor-bearing Lewis rats; settings: 90-minute biodistribution; for T/B (tumor/blood ratio) / T/M / % ID/g Tumor: 99mTc-labeled peptide, i.v.; for % ID/g Tumor: CA20948 tumor-bearing Lewis rats
Experimental: as §1, §2, §3, §4

SSTR-expressing tumors = assay: Clinical trial: scintigraphic imaging of human patients bearing SSTR-expressing tumors with Tc-99m labeled P587; format: in vivo; settings: i.v., within 30 minutes of injection
Text: In a clinical trial, scintigraphic imaging of human patients bearing SSTR-expressing tumors was achieved using the Tc-99m labeled P587 reagent.
A total of 10 patients, four females and six males ranging in age from 27 to 69 years, had been previously diagnosed with growth hormone-secreting pituitary adenoma (4 patients), melanoma (1 subject), medullary thyroid cancer (1 subject), small cell lung carcinoma (SCLC; 1 patient), non-Hodgkin's lymphoma (1 patient) or gastric carcinoid (1 patient). Each of these patients were administered Tc-99m labeled P587 at a dose of 10-22 mCi per 0.2-0.5 mg by intravenous injection. Scintigraphic imaging was them performed as described herein on each patient for 4 hours post-injection.
Gamma camera imaging is started simultaneously with injection. Anterior images were acquired as a dynamic study (10 sec image acquisitions) over the first 10 min, and then as static images at 1, 2, 3 and 4 h post-injection. Anterior images were acquired for 500,000 counts or 20 min (whichever is shorter), at approximately 10-20 min, and at approximately 1, 2, 3 and 4 h post-injection.

| T/B (tumor/blood ratio) [1] | T/M [1] | pKi (somatostatin receptor) | Compound | further results |
| --- | --- | --- | --- | --- |
| 0.85 | 4.6 | – | cyclo.(N-Me)FYWD KV.Hcy(CH2 CO.(ε-K)KC.amide) [Peptide P625] | – |
| 0.91 | 7.4 | – | KKKK.NalD.Cpa.YWD KTFT(ε-K)GCDDDD.amide [Peptide P550] | – |
| 13 | 37 | – | cyclo.(N--CH3)FYWD KV.Hcy(CH2 CO.(β-Dap)KCR.amide) [Peptide P832] | – |
| 13 | 49 | – | cyclo.(N--CH3)FYWD KV.Hcy(CH2 CO.(β-Dap)KCK.amide) [Peptide P829] | – |

Second part, the compound before the results:

| Compound | T/B (tumor/blood ratio) [1] | T/M [1] | pKi (somatostatin receptor) | further results |
| --- | --- | --- | --- | --- |
| CC(=O)NCSC[C@H](NC(=O)CNC(=O)[C@H](CSCNC(C)=O)NC(=O)[C@@H]1CSCC(=O)N[C@@H](Cc2ccccc2)C(=O)N[C@@H](Cc2ccccc2)C(=O)N[C@H](Cc2c[nH]c3ccccc23)C(=O)N[C@@H](CCCCN)C(=O)N[C@@H]([C@@H](C)O)C(=O)N[C@@H](Cc2ccccc2)C(=O)N1)C(N)=O [CH2 CO.FFWD KTFCCAcm GCAcm.amide] ({CH2CO}-FF[dW]KTFCC(Acm)GC(Acm)-NH2; thioether N-7) | – | – | 8.12 | – |
| CC(C)[C@@H]1NC(=O)[C@H](CCCCN)NC(=O)[C@@H](Cc2c[nH]c3ccccc23)NC(=O)[C@H](Cc2ccc(O)cc2)NC(=O)[C@H](Cc2ccccc2)N(C)C(=O)[C@H](CCSCC(=O)NCC(=O)NCC(=O)N[C@@H](CS)C(=O)N[C@@H](CCCCN)C(N)=O)NC1=O (99mTc complex, metal not drawn) [Peptide P587, cyclo(N-methyl)FYWD KV.Hcy.(CH2 CO.GGCK.amide)] (cyclo([NMeF]Y[dW]KV[hCys](X1))) | – | – | – | tumor uptake and tumor/blood ratios (in words) [2]: very high; T/B (tumor/blood ratio) [2]: 6.0; T/M [2]: 33; % ID/g Tumor [2]: 3.4 % ID/g; injected dose remaining in the circulation (SSTR-expressing tumors): less than 10% |
| CC(C)[C@@H]1NC(=O)[C@H](CCCCN)NC(=O)[C@@H](Cc2c[nH]c3ccccc23)NC(=O)[C@H](Cc2ccc(O)cc2)NC(=O)[C@H](Cc2ccccc2)N(C)C(=O)[C@H](CCSCC(=O)NCC(=O)NCC(=O)N[C@@H](CS)C(=O)N[C@@H](CCCNC(=N)N)C(N)=O)NC1=O (99mTc complex, metal not drawn) [Peptide P617, cyclo(N-methyl)FYWD KV.Hcy.(CH2 CO.GGCR.amide)] (cyclo([NMeF]Y[dW]KV[hCys](X2))) | – | – | – | tumor uptake and tumor/blood ratios (in words) [2]: very high; T/B (tumor/blood ratio) [2]: 9.4; T/M [2]: 36; % ID/g Tumor [2]: 6.7 % ID/g |
| C[C@@H](O)[C@@H]1NC(=O)[C@H](CCCCN)NC(=O)[C@@H](Cc2c[nH]c3ccccc23)NC(=O)[C@H](Cc2ccccc2)NC(=O)[C@H](Cc2ccccc2)NC(=O)CSC[C@@H](C(=O)NCC(=O)NCC(=O)N[C@@H](CS)C(N)=O)NC(=O)[C@H](Cc2ccccc2)NC1=O [CH2 CO.FFWD KTFCGGC.amide] ({CH2CO}-FF[dW]KTFCGGC-NH2; thioether N-7) | – | – | 8.03 | – |
| CC(C)[C@@H]1NC(=O)[C@H](CCCCN)NC(=O)[C@@H](Cc2c[nH]c3ccccc23)NC(=O)[C@H](Cc2ccc(O)cc2)NC(=O)[C@H](Cc2ccccc2)N(C)C(=O)[C@H](CCSCC(=O)NCCCC[C@H](N)C(=O)N[C@@H](CCCCN)C(=O)N[C@@H](CS)C(N)=O)NC1=O [cyclo.(N-Me)FYWD KV.Hcy(CH2 CO.(ε-K)KC.amide)] (cyclo([NMeF]Y[dW]KV[hCys](X10))) | – | – | 8.66 | – |
